Results on 16 molecules are retold here after US12358925B2, “Targeted ubiquitination degradation BRD4 protein compound, preparation method therefor and application thereof” (CSPC ZHONGQI PHARMACEUTICAL TECHNOLOGY (SHIJIAZHUANG) CO., …, priority 2019, dated 2025).

Bounds are passed on as bounds.

Assay [1] deals with multiple myeloma cell line MM.1S. As to the kind of experiment: MTT proliferation assay, MM.1S cells. Format: cell-based. Particulars: Homo sapiens, MM1.S, 72 h after drug administration. An excerpt:
(§1) Cell lines for test: acute leukemia cell line RS4; 11 and multiple myeloma cell line MM.1S
(§2) Test method: MTT (thiazole blue) method, which was also called MTT colorimetry assay, was a method used to detect cell survival and growth. The principle of the assay was that the succinate dehydrogenase in mitochondria of living cells could reduce the exogenous MTT to water-insoluble blue-purple crystal formazan and deposit it in the cells, while dead cells have no such function. Dimethyl sulfoxide (DMSO) could dissolve formazan in cells, and its light absorption value was measured at 550 nm wavelength by enzyme-linked immunoassay, which could indirectly reflect the number of living cells. Within a certain range of cell numbers, the amount of MTT crystal formation is proportional to the number of cells. This method has been widely used in the activity detection of some biologically active factors, large-scale anti-tumor drug screening, cytotoxicity test, and tumor radiosensitivity determination.
(§3) The concentration gradient of the compound was as follows: 0-25.6 pM-128 pM-640 pM-3.2 nm-16 nM-80 nM-400 nM-2 μM-10 μM; (n=3)
(§4) 72 h after drug administration, 20 μl per well of MTT working solution (5 mg/ml) was added, and incubated at 37° C. for 4 h, centrifuged in plate centrifuge at 1000 rpm/min for 5 min. 180 μl of medium was aspirated and 150 μl DMSO was added in RS4; 11 groups; 200 μl of medium was aspirated and 150 μl DMSO was added in MM.1S group; the mixture was shaken and mixed on microwell shaker, and the bottom of the plate was wiped, and the optical density (OD) was measured at 550 nm by microplate reader. The IC50 of the half inhibitory concentration was calculated by LOGIT method.

Assay [2] concerns acute leukemia cell line RS4; 11. As to the kind of experiment: MTT proliferation assay, RS4;11 cells. The format is cell-based. Particulars: Homo sapiens, 72 h after drug administration.
Excerpt: as §1, §2, §3, §4

As for `Cc1sc2c(c1C)C(c1ccc(Cl)cc1)=N[C@@H](CC(=O)Nc1ccc(OCCOCCOCCOCCNc3cccc4c3C(=O)N(C3CCC(=O)NC3=O)C4=O)cc1)c1nnc(C)n1-2` (some centres unmarked) [ARV-825, reference compound], the IC50 in assay [1] and in assay [2] was 20 to 100 nM each time.

`Cc1sc2c(c1C)C(c1ccc(Cl)cc1)=N[C@@H](CC(=O)NN1CCN(C(=O)CCC(=O)Nc3cccc4c3CN(C3CCC(=O)NC3=O)C4=O)CC1)c1nnc(C)n1-2` (stereo partly drawn) [Example 1, 4-(4-(2-((S)-4-(4-chlorophenyl)-2,3,9-trimethyl-6H-thieno[3,2-f][1,2,4]triazolo[4,3-a][1,4]diaza-6-yl)acetamido)piperazin-1-yl)-N-(2-(2,6-dioxpiperazin-3-yl)-1-oxoisoindolin-4-yl)-4-oxobutanamide]: the IC50 in assay [1] and in assay [2] was below 20 nM in each case.

For `Cc1sc2c(c1C)C(c1ccc(Cl)cc1)=N[C@@H](CC(=O)NN1CCN(C(=O)CNc3cccc4c3C(=O)N(C3CCC(=O)NC3=O)C4=O)CC1)c1nnc(C)n1-2` (some centres unmarked) [Example 4], the half-maximal inhibitory concentration (IC50) in assay [1] and in assay [2] was below 20 nM throughout.

Take `Cc1sc2c(c1C)C(c1ccc(Cl)cc1)=N[C@@H](CC(=O)NN1CCN(C(=O)CCNc3cccc4c3C(=O)N(C3CCC(=O)NC3=O)C4=O)CC1)c1nnc(C)n1-2` (some centres unmarked) [Example 5]: the IC50 in assay [1] and in assay [2] was below 20 nM in each case.

As for `Cc1sc2c(c1C)C(c1ccc(Cl)cc1)=N[C@@H](CC(=O)NN1CCN(C(=O)CCOCCOCCNc3cccc4c3C(=O)N(C3CCC(=O)NC3=O)C4=O)CC1)c1nnc(C)n1-2` (some centres unmarked) [Example 8], the figures for the half-inhibitory concentration (IC50) in assay [1] and in assay [2] were below 20 nM and 20 to 100 nM, respectively.

On to `Cc1sc2c(c1C)C(c1ccc(Cl)cc1)=N[C@@H](CC(=O)NN1CCN(C(=O)CCOCCOCCOCCNc3cccc4c3C(=O)N(C3CCC(=O)NC3=O)C4=O)CC1)c1nnc(C)n1-2` (some centres unmarked) [Example 9], for which the figures for the IC50 in assay [1] and in assay [2] were 20 to 100 nM and below 20 nM, respectively.

Take `Cc1sc2c(c1C)C(c1ccc(Cl)cc1)=N[C@@H](CC(=O)NN1CCN(C(=O)CNc3cccc4c3CN(C3CCC(=O)NC3=O)C4=O)CC1)c1nnc(C)n1-2` (some centres unmarked) [Example 11]: the 50% inhibitory concentration (IC50) in assay [1] and in assay [2] was below 20 nM each time.

Turning to `Cc1sc2c(c1C)C(c1ccc(Cl)cc1)=N[C@@H](CC(=O)NN1CCN(C(=O)CCNc3cccc4c3CN(C3CCC(=O)NC3=O)C4=O)CC1)c1nnc(C)n1-2` (some centres unmarked) [Example 12], the IC50 in assay [1] and in assay [2] was below 20 nM each time.

`Cc1sc2c(c1C)C(c1ccc(Cl)cc1)=N[C@@H](CC(=O)NN1CCN(C(=O)COc3cccc4c3C(=O)N(C3CCC(=O)NC3=O)C4=O)CC1)c1nnc(C)n1-2` (some centres unmarked) [Example 15]: the IC50 in assay [1] and in assay [2] was below 20 nM throughout.

Take `Cc1sc2c(c1C)C(c1ccc(Cl)cc1)=N[C@@H](CC(=O)N1CCN(NC(=O)CCC(=O)Nc3cccc4c3CN(C3CCC(=O)NC3=O)C4=O)CC1)c1nnc(C)n1-2` (some centres unmarked) [Example 16]: the IC50 in assay [1] and in assay [2] was below 20 nM throughout.

Turning to `Cc1sc2c(c1C)C(c1ccc(Cl)cc1)=N[C@@H](CC(=O)N1CCN(NC(=O)CNc3cccc4c3C(=O)N(C3CCC(=O)NC3=O)C4=O)CC1)c1nnc(C)n1-2` (some centres unmarked) [Example 19], the IC50 in assay [1] and in assay [2] was below 20 nM each time.

Turning to `Cc1sc2c(c1C)C(c1ccc(Cl)cc1)=N[C@@H](CC(=O)N1CCN(NC(=O)CCNc3cccc4c3C(=O)N(C3CCC(=O)NC3=O)C4=O)CC1)c1nnc(C)n1-2` (some centres unmarked) [Example 20], the IC50 in assay [1] and in assay [2] was below 20 nM throughout.

Take `Cc1sc2c(c1C)C(c1ccc(Cl)cc1)=N[C@@H](CC(=O)N1CCN(NC(=O)CNc3cccc4c3CN(C3CCC(=O)NC3=O)C4=O)CC1)c1nnc(C)n1-2` (some centres unmarked) [Example 26]: the IC50 in assay [1] and in assay [2] was 20 to 100 nM each time.

Take `Cc1sc2c(c1C)C(c1ccc(Cl)cc1)=N[C@@H](CC(=O)NNC(=O)CCC(=O)Nc1cccc3c1CN(C1CCC(=O)NC1=O)C3=O)c1nnc(C)n1-2` (some centres unmarked) [Example 31]: the half-inhibitory concentration (IC50) in assay [1] and in assay [2] was 20 to 100 nM throughout.

For the molecule `Cc1sc2c(c1C)C(c1ccc(Cl)cc1)=N[C@@H](CC(=O)OC(C)(C)C)c1nnc(C)n1-2` [JQ1, tert-butyl(S)-2-(4-(4-chlorophenyl)-2,3,9-trimethyl-6H-thieno[3,2-f][1,2,4]triazolo[4,3-a][1,4]diazepine-6-yl)acetate, reference compound], the IC50 in assay [1] and in assay [2] was at least 100 nM each time.

Regarding `Cc1sc2c(c1C)C(c1ccc(Cl)cc1)=N[C@@H](CC(=O)NCCCCNC(=O)COc1cccc3c1C(=O)N(C1CCC(=O)NC1=O)C3=O)c1nnc(C)n1-2` (some centres unmarked) [dBET1, reference compound], the IC50 in assay [1] and in assay [2] was at least 100 nM throughout.
